Experimental data: US8742100B2, “Small molecule inhibitors of isoprenylcysteine carboxyl methyltransferase with potential anticancer activity” (National University of Singapore, priority 2009, dated 2014)
Like-named read-outs stand apart in the source and are kept apart here.

Key:
fetal bovine serum = assay: Binding to fetal bovine serum (plasma protein binding), centrifugal filter device, HPLC; assay type: in vitro ADME; conditions: fetal bovine serum
Description: (§1) Semi-automatic high-throughput determination of plasma protein binding using a 96-well plate filtrate assembly and fast liquid chromatography—tandem mass spectrometry. […] Stock solutions were prepared in DMSO at 100× higher concentrations. A 5% w/v solution of fetal bovine serum in phosphate buffered saline was prepared. An aliquot (10 μL of the stock solution was added to 990 μL of the PBS solution containing 5% fetal bovine serum in a glass tube which was then incubated in a shaking water bath at 37° C. for 30 min. 500 μL of the solution was then transferred to a centrifugal filter device (Amicon Ultra 0.5 ml # UFC503096) and centrifuged at 14 000g, 15 min. After this time, the filter units were removed and placed (upside down) in a collecting tube containing 477 μL, of PBS. The latter was centrifuged at 2000g, 2 min to obtain the retentate. […] J.

[1] = as above; assay type: in vitro ADME; conditions: bovine, 5% w/v fetal bovine serum in phosphate buffered saline; for fraction unbound at 30 min, 1 µM / fraction unbound at 30 min, 4 µM / fraction unbound at 30 min, 10 µM / fraction unbound at 30 min, 25 µM: 5% fetal bovine serum in PBS
Description: as §1

[2] = read-out: % Bound Average (converted)
[3] = read-out: % Bound Run 1 (converted)
[4] = read-out: % Bound Run 2 (converted)
[5] = read-out: % Bound Run 3 (converted)

fraction unbound at 30 min, 1 µM [1, 2]: 0.776
fraction unbound at 30 min, 1 µM [1, 3]: 0.747
fraction unbound at 30 min, 1 µM [1, 4]: 0.845
fraction unbound at 30 min, 1 µM [1, 5]: 0.737
fraction unbound at 30 min, 4 µM [1, 2]: 0.638
fraction unbound at 30 min, 4 µM [1, 3]: 0.616
fraction unbound at 30 min, 4 µM [1, 4]: 0.676
fraction unbound at 30 min, 4 µM [1, 5]: 0.621
fraction unbound at 30 min, 10 µM [1, 2]: 0.765
fraction unbound at 30 min, 10 µM [1, 3]: 0.697
fraction unbound at 30 min, 10 µM [1, 4]: 0.783
fraction unbound at 30 min, 10 µM [1, 5]: 0.815
fraction unbound at 30 min, 25 µM [1, 2]: 0.737
fraction unbound at 30 min, 25 µM [1, 3]: 0.725
fraction unbound at 30 min, 25 µM [1, 4]: 0.792
fraction unbound at 30 min, 25 µM [1, 5]: 0.693
fraction unbound at 30 min ([1]; all conc (1, 4, 10, 25 uM), read-out: % Bound Average, all conc (converted)): 0.729
SMILES: CCN(CC)Cc1cn(CC=C(C)C)c2ccc(-c3cccc(C)c3)cc12 [Compound J38G, N-ethyl-N-((1-(3-methylbut-2-enyl)-5-m-tolyl-1H-indol-3-yl)methyl)ethanamine]
binding capacity compared with cysmethynil (fetal bovine serum): lower binding capacities than cysmethynil
